{"source": "the supplement of paper PMC10307832", "test_in_all_cases": "relative viability (nuclei count vs DMSO), 5 days (fraction); higher = more cells survive", "key": {"[1]": {"tested_on": "A-427", "summary_of_the_method": "(§1)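 Values are medians from duplicate plates. Each reflects relative viability, defined as the nuclei count of treated wells over that of vehicle wells. Lung cancer cell lines in 1536-well plates were pin-tool dosed one day after seeding with one drug alone or with a fixed anchor-drug dose plus five library-drug doses (not always all listed) in √10 steps, then fixed, stained and imaged at 4× after 5 days.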"}, "[2]": {"tested_on": "COR-L 105", "summary_of_the_method": "as §1"}, "[3]": {"tested_on": "EPLC-272H", "summary_of_the_method": "as §1"}, "[4]": {"tested_on": "HOP-62", "summary_of_the_method": "as §1"}, "[5]": {"tested_on": "LC-2-ad", "summary_of_the_method": "as §1"}, "[6]": {"tested_on": "LU99A", "summary_of_the_method": "as §1"}, "[7]": {"tested_on": "LXF-289", "summary_of_the_method": "as §1"}, "[8]": {"tested_on": "NCI-H1666", "summary_of_the_method": "as §1"}, "[9]": {"tested_on": "NCI-H1792", "summary_of_the_method": "as §1"}, "[10]": {"tested_on": "NCI-H1793", "summary_of_the_method": "as §1"}, "[11]": {"tested_on": "NCI-H1915", "summary_of_the_method": "as §1"}, "[12]": {"tested_on": "NCI-H1944", "summary_of_the_method": "as §1"}, "[13]": {"tested_on": "NCI-H2009", "summary_of_the_method": "as §1"}, "[14]": {"tested_on": "NCI-H2085", "summary_of_the_method": "as §1"}, "[15]": {"tested_on": "NCI-H2170", "summary_of_the_method": "as §1"}, "[16]": {"tested_on": "NCI-H358", "summary_of_the_method": "as §1"}, "[17]": {"tested_on": "NCI-H460", "summary_of_the_method": "as §1"}, "[18]": {"tested_on": "SK-LU-1", "summary_of_the_method": "as §1"}, "[19]": {"tested_on": "SW 900", "summary_of_the_method": "as §1"}, "[20]": {"tested_on": "UMC-11", "summary_of_the_method": "as §1"}}}
{"smiles": "O=c1cc(-c2cccc3c2Sc2ccccc2S3)oc(N2CCOCC2)c1", "note": "+ CCNC(=O)c1noc(-c2cc(C(C)C)c(O)cc2O)c1-c1ccc(CN2CCOCC2)cc1 [Luminespib] (partner 0.01 µM)", "values": [{"measurement": "relative viability", "setting": "[1]; first compound 0.08 µM", "value": 0.92}, {"measurement": "relative viability", "setting": "[1]; first compound 0.253 µM", "value": 1.18}, {"measurement": "relative viability", "setting": "[1]; first compound 0.8 µM", "value": 1.01}, {"measurement": "relative viability", "setting": "[1]; first compound 2.53 µM", "value": 0.842}, {"measurement": "relative viability", "setting": "[1]; first compound 8 µM", "value": 1.09}, {"measurement": "relative viability", "setting": "[2]; first compound 0.08 µM", "value": 0.701}, {"measurement": "relative viability", "setting": "[2]; first compound 0.253 µM", "value": 0.762}, {"measurement": "relative viability", "setting": "[2]; first compound 0.8 µM", "value": 0.705}, {"measurement": "relative viability", "setting": "[2]; first compound 2.53 µM", "value": 0.671}, {"measurement": "relative viability", "setting": "[2]; first compound 8 µM", "value": 1.02}, {"measurement": "relative viability", "setting": "[3]; first compound 0.08 µM", "value": 0.182}, {"measurement": "relative viability", "setting": "[3]; first compound 0.253 µM", "value": 0.405}, {"measurement": "relative viability", "setting": "[3]; first compound 0.8 µM", "value": 0.431}, {"measurement": "relative viability", "setting": "[3]; first compound 2.53 µM", "value": 0.146}, {"measurement": "relative viability", "setting": "[3]; first compound 8 µM", "value": 0.292}, {"measurement": "relative viability", "setting": "[4]; first compound 0.08 µM", "value": 1.06}, {"measurement": "relative viability", "setting": "[4]; first compound 0.253 µM", "value": 1.04}, {"measurement": "relative viability", "setting": "[4]; first compound 0.8 µM", "value": 1.03}, {"measurement": "relative viability", "setting": "[4]; first compound 2.53 µM", "value": 0.983}, {"measurement": "relative viability", "setting": "[4]; first compound 8 µM", "value": 1.02}, {"measurement": "relative viability", "setting": "[5]; first compound 0.08 µM", "value": 0.979}, {"measurement": "relative viability", "setting": "[5]; first compound 0.253 µM", "value": 1.12}, {"measurement": "relative viability", "setting": "[5]; first compound 0.8 µM", "value": 1.13}, {"measurement": "relative viability", "setting": "[5]; first compound 2.53 µM", "value": 0.955}, {"measurement": "relative viability", "setting": "[5]; first compound 8 µM", "value": 0.965}, {"measurement": "relative viability", "setting": "[6]; first compound 0.08 µM", "value": 0.211}, {"measurement": "relative viability", "setting": "[6]; first compound 0.253 µM", "value": 0.219}, {"measurement": "relative viability", "setting": "[6]; first compound 0.8 µM", "value": 0.259}, {"measurement": "relative viability", "setting": "[6]; first compound 2.53 µM", "value": 0.221}, {"measurement": "relative viability", "setting": "[6]; first compound 8 µM", "value": 0.306}, {"measurement": "relative viability", "setting": "[7]; first compound 0.08 µM", "value": 0.607}, {"measurement": "relative viability", "setting": "[7]; first compound 0.253 µM", "value": 0.764}, {"measurement": "relative viability", "setting": "[7]; first compound 0.8 µM", "value": 0.636}, {"measurement": "relative viability", "setting": "[7]; first compound 2.53 µM", "value": 0.69}, {"measurement": "relative viability", "setting": "[7]; first compound 8 µM", "value": 0.765}, {"measurement": "relative viability", "setting": "[8]; first compound 0.08 µM", "value": 1.01}, {"measurement": "relative viability", "setting": "[8]; first compound 0.253 µM", "value": 1.09}, {"measurement": "relative viability", "setting": "[8]; first compound 0.8 µM", "value": 1.01}, {"measurement": "relative viability", "setting": "[8]; first compound 2.53 µM", "value": 1.06}, {"measurement": "relative viability", "setting": "[8]; first compound 8 µM", "value": 1.17}, {"measurement": "relative viability", "setting": "[9]; first compound 0.08 µM", "value": 0.362}, {"measurement": "relative viability", "setting": "[9]; first compound 0.253 µM", "value": 0.686}, {"measurement": "relative viability", "setting": "[9]; first compound 0.8 µM", "value": 0.329}, {"measurement": "relative viability", "setting": "[9]; first compound 2.53 µM", "value": 0.424}, {"measurement": "relative viability", "setting": "[9]; first compound 8 µM", "value": 0.328}, {"measurement": "relative viability", "setting": "[10]; first compound 0.08 µM", "value": 0.168}, {"measurement": "relative viability", "setting": "[10]; first compound 0.253 µM", "value": 0.299}, {"measurement": "relative viability", "setting": "[10]; first compound 0.8 µM", "value": 0.231}, {"measurement": "relative viability", "setting": "[10]; first compound 2.53 µM", "value": 0.17}, {"measurement": "relative viability", "setting": "[10]; first compound 8 µM", "value": 0.153}, {"measurement": "relative viability", "setting": "[11]; first compound 0.08 µM", "value": 0.968}, {"measurement": "relative viability", "setting": "[11]; first compound 0.253 µM", "value": 0.827}, {"measurement": "relative viability", "setting": "[11]; first compound 0.8 µM", "value": 0.911}, {"measurement": "relative viability", "setting": "[11]; first compound 2.53 µM", "value": 0.775}, {"measurement": "relative viability", "setting": "[11]; first compound 8 µM", "value": 0.769}, {"measurement": "relative viability", "setting": "[12]; first compound 0.08 µM", "value": 0.678}, {"measurement": "relative viability", "setting": "[12]; first compound 0.253 µM", "value": 0.746}, {"measurement": "relative viability", "setting": "[12]; first compound 0.8 µM", "value": 0.72}, {"measurement": "relative viability", "setting": "[12]; first compound 2.53 µM", "value": 0.684}, {"measurement": "relative viability", "setting": "[12]; first compound 8 µM", "value": 0.758}, {"measurement": "relative viability", "setting": "[13]; first compound 0.08 µM", "value": 1.07}, {"measurement": "relative viability", "setting": "[13]; first compound 0.253 µM", "value": 1.1}, {"measurement": "relative viability", "setting": "[13]; first compound 0.8 µM", "value": 1.01}, {"measurement": "relative viability", "setting": "[13]; first compound 2.53 µM", "value": 0.939}, {"measurement": "relative viability", "setting": "[13]; first compound 8 µM", "value": 1}, {"measurement": "relative viability", "setting": "[14]; first compound 0.08 µM", "value": 0.408}, {"measurement": "relative viability", "setting": "[14]; first compound 0.253 µM", "value": 0.526}, {"measurement": "relative viability", "setting": "[14]; first compound 0.8 µM", "value": 0.39}, {"measurement": "relative viability", "setting": "[14]; first compound 2.53 µM", "value": 0.437}, {"measurement": "relative viability", "setting": "[14]; first compound 8 µM", "value": 0.354}, {"measurement": "relative viability", "setting": "[15]; first compound 0.08 µM", "value": 0.839}, {"measurement": "relative viability", "setting": "[15]; first compound 0.253 µM", "value": 0.931}, {"measurement": "relative viability", "setting": "[15]; first compound 0.8 µM", "value": 0.903}, {"measurement": "relative viability", "setting": "[15]; first compound 2.53 µM", "value": 0.63}, {"measurement": "relative viability", "setting": "[15]; first compound 8 µM", "value": 0.533}, {"measurement": "relative viability", "setting": "[16]; first compound 0.08 µM", "value": 0.154}, {"measurement": "relative viability", "setting": "[16]; first compound 0.253 µM", "value": 0.388}, {"measurement": "relative viability", "setting": "[16]; first compound 0.8 µM", "value": 0.329}, {"measurement": "relative viability", "setting": "[16]; first compound 2.53 µM", "value": 0.375}, {"measurement": "relative viability", "setting": "[16]; first compound 8 µM", "value": 0.292}, {"measurement": "relative viability", "setting": "[17]; first compound 0.08 µM", "value": 0.0288}, {"measurement": "relative viability", "setting": "[17]; first compound 0.253 µM", "value": 0.0357}, {"measurement": "relative viability", "setting": "[17]; first compound 0.8 µM", "value": 0.0367}, {"measurement": "relative viability", "setting": "[17]; first compound 2.53 µM", "value": 0.0306}, {"measurement": "relative viability", "setting": "[17]; first compound 8 µM", "value": 0.0332}, {"measurement": "relative viability", "setting": "[18]; first compound 0.08 µM", "value": 0.192}, {"measurement": "relative viability", "setting": "[18]; first compound 0.253 µM", "value": 0.186}, {"measurement": "relative viability", "setting": "[18]; first compound 0.8 µM", "value": 0.209}, {"measurement": "relative viability", "setting": "[18]; first compound 2.53 µM", "value": 0.178}, {"measurement": "relative viability", "setting": "[18]; first compound 8 µM", "value": 0.183}, {"measurement": "relative viability", "setting": "[19]; first compound 0.08 µM", "value": 0.198}, {"measurement": "relative viability", "setting": "[19]; first compound 0.253 µM", "value": 0.187}, {"measurement": "relative viability", "setting": "[19]; first compound 0.8 µM", "value": 0.166}, {"measurement": "relative viability", "setting": "[19]; first compound 2.53 µM", "value": 0.149}, {"measurement": "relative viability", "setting": "[19]; first compound 8 µM", "value": 0.15}, {"measurement": "relative viability", "setting": "[20]; first compound 0.08 µM", "value": 1.07}, {"measurement": "relative viability", "setting": "[20]; first compound 0.253 µM", "value": 1.22}, {"measurement": "relative viability", "setting": "[20]; first compound 0.8 µM", "value": 1.19}, {"measurement": "relative viability", "setting": "[20]; first compound 2.53 µM", "value": 1.25}, {"measurement": "relative viability", "setting": "[20]; first compound 8 µM", "value": 1.34}]}
